Like-named read-outs stand apart in the source and are kept apart here.
Tests used:
human HDAC2 = human HDAC2 (Homo sapiens (Human), UniProt Q92769); assay: HDAC2 inhibition assay (modified FLUOR DE LYS, 384-well); format: biochemical; details: 40 μM substrate BML-KI104, 3 h pre-incubation, read-out: HDAC2 IC50
human HDAC8 = human HDAC8 (Homo sapiens (Human), UniProt Q9BY41); assay: HDAC8 inhibition assay (modified FLUOR DE LYS, 384-well); format: biochemical; details: 200 μM substrate BML-KI178, 3 h pre-incubation, read-out: HDAC8 IC50
KARN cells (Jurkat 2C4) [1] = details: luciferase induction, 2 μM SAHA = 100%
human HDAC1 [2] = molecular target: T1, human HDAC1 (Homo sapiens (Human), UniProt Q13547); assay: biochemical
[3] = molecular target: T2, human HDAC3/SMRT heterodimer (Homo sapiens (Human), UniProt O15379); assay: biochemical
HDAC6 [4] = molecular target: T3, HDAC6 (Homo sapiens (Human), UniProt Q9UBN7); assay: biochemical
human HDAC1 [5] = molecular target: T1, human HDAC1
[6] = molecular target: T2, human HDAC3/SMRT heterodimer
HDAC6 [7] = molecular target: T3, HDAC6
KARN cells (Jurkat 2C4) [8] = assay: cells; details: Homo sapiens
[9] = read-out: Karn EC50 nM 0.1% NHS, 0.1% normal human serum
[10] = read-out: Karn EC50 nM 5% NHS, 5% normal human serum
[11] = read-out: Karn EC50 nM 0.1% NHS, 0.1% normal human serum, luciferase induction, 2 μM SAHA = 100%
[12] = read-out: Karn EC50 nM 5% NHS, 5% normal human serum, luciferase induction, 2 μM SAHA = 100%

T3 sequence (Q9UBN7 whole entry): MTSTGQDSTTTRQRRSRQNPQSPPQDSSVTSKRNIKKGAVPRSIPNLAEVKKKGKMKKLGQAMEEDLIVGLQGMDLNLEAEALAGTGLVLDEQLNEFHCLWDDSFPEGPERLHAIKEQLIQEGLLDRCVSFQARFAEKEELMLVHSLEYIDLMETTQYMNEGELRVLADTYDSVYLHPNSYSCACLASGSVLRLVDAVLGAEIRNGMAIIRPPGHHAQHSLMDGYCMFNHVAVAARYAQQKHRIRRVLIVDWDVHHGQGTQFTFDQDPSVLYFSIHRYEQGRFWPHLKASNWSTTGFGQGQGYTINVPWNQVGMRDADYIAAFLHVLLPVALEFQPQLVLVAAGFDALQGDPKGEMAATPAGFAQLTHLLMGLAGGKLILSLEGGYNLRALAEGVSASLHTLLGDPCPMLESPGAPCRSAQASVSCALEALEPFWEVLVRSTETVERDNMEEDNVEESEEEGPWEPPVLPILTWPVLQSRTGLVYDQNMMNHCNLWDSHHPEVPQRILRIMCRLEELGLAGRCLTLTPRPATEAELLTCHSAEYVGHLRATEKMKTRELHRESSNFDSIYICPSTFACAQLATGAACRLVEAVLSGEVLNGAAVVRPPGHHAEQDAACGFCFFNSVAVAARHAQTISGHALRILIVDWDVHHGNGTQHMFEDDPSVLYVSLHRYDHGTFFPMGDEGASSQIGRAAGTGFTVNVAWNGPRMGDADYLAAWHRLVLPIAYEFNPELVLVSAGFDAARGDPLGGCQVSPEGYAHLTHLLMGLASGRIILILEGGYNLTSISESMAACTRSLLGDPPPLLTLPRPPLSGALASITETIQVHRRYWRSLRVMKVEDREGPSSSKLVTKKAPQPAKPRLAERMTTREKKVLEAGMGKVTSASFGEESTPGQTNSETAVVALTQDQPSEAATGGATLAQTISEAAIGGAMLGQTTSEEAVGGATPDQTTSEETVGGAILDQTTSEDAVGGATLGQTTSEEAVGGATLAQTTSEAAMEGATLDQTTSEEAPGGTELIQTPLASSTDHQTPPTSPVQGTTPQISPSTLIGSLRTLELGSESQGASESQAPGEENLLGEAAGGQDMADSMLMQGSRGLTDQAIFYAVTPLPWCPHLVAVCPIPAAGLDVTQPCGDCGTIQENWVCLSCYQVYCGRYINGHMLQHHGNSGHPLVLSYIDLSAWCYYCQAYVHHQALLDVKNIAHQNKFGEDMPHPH
Chain of human HDAC8 (Q9BY41 whole entry): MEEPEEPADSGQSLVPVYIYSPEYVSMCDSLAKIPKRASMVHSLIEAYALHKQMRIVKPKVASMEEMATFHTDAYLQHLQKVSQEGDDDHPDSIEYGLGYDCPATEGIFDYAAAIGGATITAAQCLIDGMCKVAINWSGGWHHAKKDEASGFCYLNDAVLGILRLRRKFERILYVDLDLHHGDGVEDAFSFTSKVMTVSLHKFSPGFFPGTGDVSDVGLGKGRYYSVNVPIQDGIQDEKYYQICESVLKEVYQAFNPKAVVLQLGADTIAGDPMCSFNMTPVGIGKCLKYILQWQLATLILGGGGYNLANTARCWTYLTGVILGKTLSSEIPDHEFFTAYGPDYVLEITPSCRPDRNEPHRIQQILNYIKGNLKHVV
T1 sequence (Q13547 whole entry): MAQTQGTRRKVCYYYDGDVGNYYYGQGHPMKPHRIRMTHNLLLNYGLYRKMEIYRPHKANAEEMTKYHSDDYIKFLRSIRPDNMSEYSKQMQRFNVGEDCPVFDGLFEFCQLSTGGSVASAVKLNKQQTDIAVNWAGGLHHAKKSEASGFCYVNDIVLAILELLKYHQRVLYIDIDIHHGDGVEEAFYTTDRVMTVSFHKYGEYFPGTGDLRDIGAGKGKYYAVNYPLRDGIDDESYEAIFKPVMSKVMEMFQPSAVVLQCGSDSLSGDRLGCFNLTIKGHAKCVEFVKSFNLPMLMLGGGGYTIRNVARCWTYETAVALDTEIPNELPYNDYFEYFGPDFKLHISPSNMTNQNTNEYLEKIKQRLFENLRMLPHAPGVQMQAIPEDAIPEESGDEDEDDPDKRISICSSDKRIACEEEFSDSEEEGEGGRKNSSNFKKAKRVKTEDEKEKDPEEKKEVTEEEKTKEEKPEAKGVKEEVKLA
Chain of human HDAC2 (Q92769 whole entry): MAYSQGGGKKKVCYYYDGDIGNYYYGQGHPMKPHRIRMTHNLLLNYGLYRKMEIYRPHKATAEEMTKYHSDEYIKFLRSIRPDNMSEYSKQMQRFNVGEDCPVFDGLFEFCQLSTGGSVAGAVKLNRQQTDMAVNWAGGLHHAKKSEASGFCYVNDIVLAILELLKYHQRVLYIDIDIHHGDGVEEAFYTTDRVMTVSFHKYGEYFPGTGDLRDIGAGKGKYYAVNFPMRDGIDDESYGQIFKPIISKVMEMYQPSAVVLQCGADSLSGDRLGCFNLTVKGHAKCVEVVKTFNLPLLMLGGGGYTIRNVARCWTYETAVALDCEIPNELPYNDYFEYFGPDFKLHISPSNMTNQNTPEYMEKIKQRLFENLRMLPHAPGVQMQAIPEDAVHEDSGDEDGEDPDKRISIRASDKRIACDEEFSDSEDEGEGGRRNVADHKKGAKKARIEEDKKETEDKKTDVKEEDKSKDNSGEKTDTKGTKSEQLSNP
T2 sequence (O15379 whole entry): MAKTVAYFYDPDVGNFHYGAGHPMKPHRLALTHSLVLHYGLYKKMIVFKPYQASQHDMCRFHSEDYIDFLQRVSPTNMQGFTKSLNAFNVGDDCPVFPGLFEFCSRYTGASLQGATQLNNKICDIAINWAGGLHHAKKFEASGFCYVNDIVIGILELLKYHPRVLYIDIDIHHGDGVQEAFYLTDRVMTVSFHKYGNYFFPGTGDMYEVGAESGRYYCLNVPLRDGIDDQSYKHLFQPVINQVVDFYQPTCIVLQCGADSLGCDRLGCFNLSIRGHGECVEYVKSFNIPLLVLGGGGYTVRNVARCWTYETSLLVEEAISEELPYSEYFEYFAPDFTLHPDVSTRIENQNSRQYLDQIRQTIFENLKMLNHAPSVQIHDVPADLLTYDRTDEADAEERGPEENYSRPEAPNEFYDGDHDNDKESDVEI
T2 sequence (Q9Y618 1-899 partner): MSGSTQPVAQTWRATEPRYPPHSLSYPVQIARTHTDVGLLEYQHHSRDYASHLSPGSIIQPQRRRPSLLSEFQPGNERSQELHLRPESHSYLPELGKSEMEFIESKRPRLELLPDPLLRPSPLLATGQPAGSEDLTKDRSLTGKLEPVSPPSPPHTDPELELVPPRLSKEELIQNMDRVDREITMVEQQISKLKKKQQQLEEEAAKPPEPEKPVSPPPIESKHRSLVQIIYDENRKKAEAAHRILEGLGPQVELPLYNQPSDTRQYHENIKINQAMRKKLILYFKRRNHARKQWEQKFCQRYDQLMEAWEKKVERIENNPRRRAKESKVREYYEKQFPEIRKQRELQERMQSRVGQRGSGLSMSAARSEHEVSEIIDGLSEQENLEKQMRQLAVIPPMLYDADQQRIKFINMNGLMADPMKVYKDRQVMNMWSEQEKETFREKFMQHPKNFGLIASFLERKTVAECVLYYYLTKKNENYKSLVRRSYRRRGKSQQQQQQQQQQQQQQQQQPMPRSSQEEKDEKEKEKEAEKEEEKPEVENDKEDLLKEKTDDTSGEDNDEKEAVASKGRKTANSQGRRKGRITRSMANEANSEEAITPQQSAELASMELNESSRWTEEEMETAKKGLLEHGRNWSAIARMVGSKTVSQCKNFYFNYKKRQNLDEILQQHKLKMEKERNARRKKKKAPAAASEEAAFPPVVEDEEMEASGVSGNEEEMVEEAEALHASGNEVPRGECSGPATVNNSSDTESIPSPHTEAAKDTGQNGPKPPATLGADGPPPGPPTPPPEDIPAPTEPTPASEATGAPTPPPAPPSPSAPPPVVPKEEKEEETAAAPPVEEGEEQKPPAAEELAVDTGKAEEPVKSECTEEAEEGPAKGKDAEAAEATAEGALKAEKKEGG

Row | SMILES | IC50 (human HDAC2; […] nM enzyme) | IC50 (human HDAC8; […] nM enzyme) | EC50 (KARN cells (Jurkat 2C4) [1]; [9]) | EC50 (KARN cells (Jurkat 2C4) [1]; [10]) | IC50 (human HDAC1 [2]) | IC50 [3] | IC50 (HDAC6 [4]) | IC50 (human HDAC2; […] enzyme) | IC50 (human HDAC8; […] enzyme) | IC50 (human HDAC1 [5]) | IC50 [6] | IC50 (HDAC6 [7]) | EC50 (KARN cells (Jurkat 2C4) [8]; [11]) | EC50 (KARN cells (Jurkat 2C4) [8]; [12])
1 | Cc1ccc2cc(-c3cnc([C@H](CCCCCC(=O)c4ncco4)NC(=O)[C@H]4CC45CCN(C)CC5)o3)ccc2n1 [Example 109, (S)-6-methyl-N-((S)-1-(5-(2-methylquinolin-6-yl)oxazol-2-yl)-7-(oxazol-2-yl)-7-oxoheptyl)-6-azaspiro[2.5]octane-1-carboxamide] | 39 nM | 5000 nM | 1700 nM | 2500 nM | 7.5 nM | 7.5 nM | 23000 nM | – | – | – | – | – | – | –
2 | Cc1ccc2cc(-c3cnc(C(CCCCCC(=O)c4ncco4)NC(=O)[C@H]4CC45CCN(C)CC5)o3)ccc2n1 (stereo partly drawn) [Example 111, (1S)-6-methyl-N-(1-(5-(2-methylquinolin-6-yl)oxazol-2-yl)-7-(oxazol-2-yl)-7-oxoheptyl)-6-azaspiro[2.5]octane-1-carboxamide] | – | – | 70 nM | 48 nM | – | – | – | 5.2 nM | 520 nM | 0.76 nM | 1.4 nM | 430 nM | – | –
3 | COc1cc2nc(C)ccc2cc1-c1cnc([C@H](CCCCCC(=O)c2ncco2)NC(=O)C2CCC3(CC2)CN(C)C3)[nH]1 [Example 117, (S)-N-(1-(5-(7-methoxy-2-methylquinolin-6-yl)-1H-imidazol-2-yl)-7-(oxazol-2-yl)-7-oxoheptyl)-2-methyl-2-azaspiro[3.5]nonane-7-carboxamide] | 5.8 nM | 21 nM | – | – | 0.82 nM | 1.4 nM | 680 nM | – | – | – | – | – | 320 nM | 320 nM
4 | COc1cc(-c2cnc([C@@H](N)CCCCCC(=O)c3ncco3)[nH]2)c(F)cn1 [Example 129, (S)-7-amino-7-(5-(5-fluoro-2-methoxypyridin-4-yl)-1H-imidazol-2-yl)-1-(oxazol-2-yl)heptan-1-one] | 100 nM | 2300 nM | – | – | 16 nM | 16 nM | ≥ 45000 nM | – | – | – | – | – | 1600 nM | 2900 nM
5 | CCN1CCC2(CC1)C[C@@H]2C(=O)N[C@@H](CCCCCC(=O)c1ccon1)c1cc(-c2cc3ccc(C)nc3cc2OC)on1 [Example 145, (S)-6-ethyl-N-((S)-7-(isoxazol-3-yl)-1-(5-(7-methoxy-2-methylquinolin-6-yl)isoxazol-3-yl)-7-oxoheptyl)-6-azaspiro[2.5]octane-1-carboxamide] | 14 nM | 5.1 nM | – | – | 3.4 nM | 4.2 nM | > 900 nM | – | – | – | – | – | 49 nM | 66 nM
6 | COc1cc2nc(C)ccc2cc1-c1cnc([C@H](CCCCCC(=O)c2ncco2)NC(=O)C2COCCO2)[nH]1 (stereo partly drawn) [Example 174, N-[(1S)-1-[5-(7-methoxy-2-methylquinolin-6-yl)-1H-imidazol-2-yl]-7-(1,3-oxazol-2-yl)-7-oxoheptyl]-1,4-dioxane-2-carboxamide] | – | – | 37 nM | 80 nM | – | – | – | 3.7 nM | 110 nM | 1.4 nM | 0.54 nM | > 900 nM | – | –
7 | N#Cc1nc(-c2ccc(F)cc2)[nH]c1[C@@H](N)CCCCCC(=O)c1ncco1 [Example 185, (S)-5-(1-amino-7-(oxazol-2-yl)-7-oxoheptyl)-2-(4-fluorophenyl)-1H-imidazole-4-carbonitrile] | 15 nM | 6700 nM | – | – | 2.9 nM | 3.9 nM | ≥ 45000 nM | – | – | – | – | – | 250 nM | 690 nM
8 | CN(C)CC(=O)N[C@@H](CCCCCC(=O)c1ncco1)c1[nH]c(-c2ccc(F)cc2)nc1C#N [Example 186, (S)-N-(1-(4-cyano-2-(4-fluorophenyl)-1H-imidazol-5-yl)-7-(oxazol-2-yl)-7-oxoheptyl)-2-(dimethylamino)acetamide] | 1.7 nM | 220 nM | – | – | 0.28 nM | 0.39 nM | ≥ 45000 nM | – | – | – | – | – | 12 nM | 21 nM
9 | N#Cc1nc(-c2ccc(F)cc2)oc1[C@@H](N)CCCCCC(=O)c1ncco1 [Example 189, (S)-5-(1-amino-7-(oxazol-2-yl)-7-oxoheptyl)-2-(4-fluorophenyl)oxazole-4-carbonitrile] | 250 nM | 25000 nM | – | – | 26 nM | 45 nM | ≥ 45000 nM | – | – | – | – | – | 3000 nM | 7400 nM
10 | CN(C)CC(=O)N[C@@H](CCCCCC(=O)c1ncco1)c1oc(-c2ccc(F)cc2)nc1C#N [Example 190] | 21 nM | 3200 nM | – | – | 4.6 nM | 3.2 nM | ≥ 45000 nM | – | – | – | – | – | 240 nM | 260 nM
11 | N[C@@H](CCCCCC(=O)c1ccon1)c1nc(Cl)c(-c2ccc(F)cc2)[nH]1 [Example 193, (S)-7-amino-7-(4-chloro-5-(4-fluorophenyl)-1H-imidazol-2-yl)-1-(isoxazol-3-yl)heptan-1-one] | 7.4 nM | 1600 nM | – | – | 1.8 nM | 1.8 nM | ≥ 45000 nM | – | – | – | – | – | 130 nM | 1800 nM
12 | CN(C)CC(=O)N[C@@H](CCCCCC(=O)c1ccon1)c1nc(Cl)c(-c2ccc(F)cc2)[nH]1 [Example 194, (S)-N-(1-(4-chloro-5-(4-fluorophenyl)-1H-imidazol-2-yl)-7-(isoxazol-3-yl)-7-oxoheptyl)-2-(dimethylamino)acetamide] | 0.69 nM | 19 nM | – | – | 0.2 nM | 0.1 nM | 9500 nM | – | – | – | – | – | 3.2 nM | 15 nM

Reference: patent US12331044B2, “Inhibitors of histone deacetylase useful for the treatment or prevention of HIV infection” (Merck Sharp & Dohme LLC, priority 2018, dated 2025)
